Among the data in BindingDB's records for doi:10.1021/jm030040o (Schering-Plough Research Institute, 2003) are Ki values, retold here.

This assay has as its target Genome polyprotein (Hepatitis C virus). The assay is described as follows: Binding constant against hepatitis C virus (HCV) protease.

The structures appear in SMILES notation.

What is called Ki is the dissociation constant of the complex between target and ligand, obtained from inhibition or displacement. Higher therefore signals lower affinity.

The molecule `CC[C@H](C)[C@H](NC(=O)[C@H](CC(C)C)NC(=O)[C@@H](CCC(=O)O)NC(=O)[C@H](CC(=O)O)NC(C)=O)C(=O)N[C@@H](CC1CCCCC1)C(=O)N[C@@H](CCS)C(=O)O` [2-[(S)-(S)-2-((R)-2-{(S)-2-[(R)-2-((S)-2-Acetylamino-3-carboxy-propionylamino)-4-(S)-carboxy-butyrylamino]-4-methyl-pentanoylamino}-3-methyl-pentanoylamino)-3-cyclohexyl-propionylamino]-4-mercapto-butyric acid] had a Ki of 80000 nM.

Molecule `CC[C@H](NC(=O)[C@H](CC1CCCCC1)NC(=O)[C@@H](NC(=O)[C@H](CC(C)C)NC(=O)[C@@H](CCC(=O)O)NC(=O)[C@H](CC(=O)O)NC(C)=O)[C@@H](C)CC)C(=O)O` [2-[(S)-(S)-2-((R)-2-{(S)-2-[(R)-2-((S)-2-Acetylamino-3-carboxy-propionylamino)-4-(S)-carboxy-butyrylamino]-4-methyl-pentanoylamino}-3-methyl-pentanoylamino)-3-cyclohexyl-propionylamino]-butyric acid] returned a Ki of 600 nM. The same measure for `CCCC[C@H](NC(=O)[C@H](CC1CCCCC1)NC(=O)[C@@H](NC(=O)[C@H](CC(C)C)NC(=O)[C@@H](CCC(=O)O)NC(=O)[C@H](CC(=O)O)NC(C)=O)[C@@H](C)CC)C(=O)O` [2-[(S)-(S)-2-((R)-2-{(S)-2-[(R)-2-((S)-2-Acetylamino-3-carboxy-propionylamino)-4-(S)-carboxy-butyrylamino]-4-methyl-pentanoylamino}-3-methyl-pentanoylamino)-3-cyclohexyl-propionylamino]-hexanoic acid]: 2000 nM; for `CCC[C@H](NC(=O)[C@H](CC1CCCCC1)NC(=O)[C@@H](NC(=O)[C@H](CC(C)C)NC(=O)[C@@H](CCC(=O)O)NC(=O)[C@H](CC(=O)O)NC(C)=O)[C@@H](C)CC)C(=O)O` [(S)-2-[(S)-2-((R)-2-{(S)-2-[(R)-2-((S)-2-Acetylamino-3-carboxy-propionylamino)-4-(S)-carboxy-butyrylamino]-4-methyl-pentanoylamino}-3-methyl-pentanoylamino)-3-cyclohexyl-propionylamino]-pentanoic acid]: 130 nM. The same measure for `CCSC[C@H](NC(=O)[C@H](CC1CCCCC1)NC(=O)[C@@H](NC(=O)[C@H](CC(C)C)NC(=O)[C@@H](CCC(=O)O)NC(=O)[C@H](CC(=O)O)NC(C)=O)[C@@H](C)CC)C(=O)O` [(S)-4-((S)-2-Acetylamino-3-carboxy-propionylamino)-4-((R)-(S)-1-{1-[(R)-(R)-1-((S)-1-carboxy-2-ethylsulfanyl-ethylcarbamoyl)-2-cyclohexyl-ethylcarbamoyl]-2-methyl-butylcarbamoyl}-3-methyl-butylcarbamoyl)-butyric acid]: 5000 nM. The same measure for `CC[C@H](C)[C@H](NC(=O)[C@H](CC(C)C)NC(=O)[C@@H](CCC(=O)O)NC(=O)[C@H](CC(=O)O)NC(C)=O)C(=O)N[C@@H](CC1CCCCC1)C(=O)N[C@@H](CS)C(=O)O` [(S)-4-((S)-2-Acetylamino-3-carboxy-propionylamino)-4-((R)-(S)-1-{1-[(R)-(R)-1-((S)-1-carboxy-2-mercapto-ethylcarbamoyl)-2-cyclohexyl-ethylcarbamoyl]-2-methyl-butylcarbamoyl}-3-methyl-butylcarbamoyl)-butyric acid]: 120 nM; for `CC[C@H](C)[C@H](NC(=O)[C@H](CC(C)C)NC(=O)[C@@H](CCC(=O)O)NC(=O)[C@H](CC(=O)O)NC(C)=O)C(=O)N[C@@H](CC1CCCCC1)C(=O)N[C@@H](CSC)C(=O)O` [(S)-4-((S)-2-Acetylamino-3-carboxy-propionylamino)-4-((R)-(S)-1-{1-[(R)-(R)-1-((S)-1-carboxy-2-methylsulfanyl-ethylcarbamoyl)-2-cyclohexyl-ethylcarbamoyl]-2-methyl-butylcarbamoyl}-3-methyl-butylcarbamoyl)-butyric acid]: 500 nM.
